Experimental findings from patent US11667651B2, “Aminopyridine derivatives as phosphatidylinositol phosphate kinase inhibitors” (HiberCell, Inc., priority 2017, dated 2023) are described below.

Broadly, the IC50 is the concentration that gives 50% inhibition.

What all share (format): biochemical
The target in test [1] is T1, PIP4K2A (Homo sapiens, UniProt P48426).
T1 sequence (P48426 1-406): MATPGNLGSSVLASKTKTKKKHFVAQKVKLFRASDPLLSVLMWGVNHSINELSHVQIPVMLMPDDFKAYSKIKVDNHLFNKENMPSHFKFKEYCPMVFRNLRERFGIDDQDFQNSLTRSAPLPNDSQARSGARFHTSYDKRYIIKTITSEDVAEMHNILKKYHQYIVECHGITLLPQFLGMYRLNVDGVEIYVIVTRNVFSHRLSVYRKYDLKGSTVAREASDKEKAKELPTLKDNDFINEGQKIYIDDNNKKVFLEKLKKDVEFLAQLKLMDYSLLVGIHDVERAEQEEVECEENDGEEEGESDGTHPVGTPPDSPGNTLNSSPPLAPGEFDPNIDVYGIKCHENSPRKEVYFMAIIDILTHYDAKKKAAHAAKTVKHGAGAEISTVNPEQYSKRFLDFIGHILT
As to the kind of experiment: ADP-glo kinase assay PIP4K 2A (Table 3). The following applies: compounds listed under IC50 bins. The arrangement: made in house; host or cells: E. coli. How it is done:
Dilution series of the compounds were prepared in DMSO at 100 times the final assay concentration (n1=n0/3 in 10 points). The compounds were further diluted to three times the assay concentration in assay buffer (20 mM MOPS pH 7.2, 25 mM magnesium chloride, 0.005% Tween 20). 6 μL of the diluted compounds were added to a 384 well assay plate followed by 9 μL of a mix consisting of 4 nM PIP4K2A (full length protein, SignalChem) and 100 μM PI(5)P diC8 (Tebu-Bio). Enzyme and compounds were pre-incubated at room temperature for 15 minutes.
Then 3 μL of a solution containing 60 μM ATP (Promega) in assay buffer was added to the wells containing compound and enzyme and mixing was performed by pipetting several times. The reaction was incubated at room temperature for 1 h. Then 18 μL of ADP-Glo™ Reagent (Promega) was added to stop the kinase reaction and deplete the unconsumed ATP, mixing was performed by pipetting several times. The plate was incubated at room temperature for 40 minutes before addition of 36 μL of Kinase Detection Reagent (Promega) to convert ADP to ATP and introduce luciferase and luciferin to detect ATP. The reaction was incubated at room temperature for 40 minutes before the luminescence was measured in a in a Victor 3V 1420 multilabel counter (Perkin Elmer).
Percent inhibition of the compounds as compared to dimethyl sulfoxide treated control samples was calculated. Compound concentration versus percent inhibition were fitted to generate IC50 values. […]
(ADP-Glo turns the ADP formed in a reaction into a luminescent signal.)

Test [2] has as its target T2, PIP4K2B (Homo sapiens, UniProt P78356).
T2 construct: made in house; host or cells: E. coli
T2 sequence (P78356 1-416): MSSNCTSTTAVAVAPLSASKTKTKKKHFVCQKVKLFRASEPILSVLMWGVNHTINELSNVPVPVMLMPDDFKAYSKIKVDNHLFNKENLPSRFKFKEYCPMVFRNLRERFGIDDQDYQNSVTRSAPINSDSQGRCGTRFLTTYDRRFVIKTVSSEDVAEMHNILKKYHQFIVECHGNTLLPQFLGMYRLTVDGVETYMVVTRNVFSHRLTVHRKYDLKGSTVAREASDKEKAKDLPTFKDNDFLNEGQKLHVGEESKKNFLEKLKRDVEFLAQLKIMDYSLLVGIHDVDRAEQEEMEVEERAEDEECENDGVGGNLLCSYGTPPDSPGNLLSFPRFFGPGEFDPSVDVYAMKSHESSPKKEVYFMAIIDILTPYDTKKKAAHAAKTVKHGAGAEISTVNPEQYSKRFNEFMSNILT
As to the kind of experiment: Trans-FI P kinase assay PIP4K2B (Table 4). The note with it: compounds listed under IC50 bins; read-out: Trans-FI P kinase assays: PIP4K2B IC50. The text has this:
GST tagged PIP4KtypeIIA and B enzymes were overexpressed in E. Coli and purified to >80% homogeneity. Phosphatidyl inositol-5-phosphate (PI5P, Cat. #850152, Avanti Polar Lipids Inc.) was used as the lipid substrate and phosphatidyl ethanolamine (DOPE 18:1, Cat. #850725, Avanti Polar Lipids Inc.) was used as the carrier lipid for assays. Ultrapure ATP and GTP was purchased from Bellbrooke Labs. ADP Glo reagents were obtained from Promega. Transcreener FI reagent was obtained from Bellbrooke labs.
GST-tagged PIP4KtypeIIB (3.4 μL, 2.77 mg/mL) was diluted to 5 mL using HNE buffer to yield 5× enzyme stock (25 nM)
Lipid Preparation: In a 10 mL pyrex glass vial, […] were suspended in 2.5 mL of HEPES buffer mix and 2.5 mL of H:E buffer. The contents were mixed and sonicated for 3 min to yield a translucent lipid stock.
Compound Preparation: Compounds were stored as 5 mM stocks in neat DMSO as room temperature in glass vials. 5 mM stocks were diluted to 2 mM and then serially diluted (3×) in neat DMSO in 96 well polypropylene plates. From the serially diluted stocks, 3 μL was delivered into 250 μL of 25% DMSO (in water) to generate 5× compound stocks. Typically, the highest compound conc. was 24 μM.
The assay volume was kept at 25 μL. To each well of the reaction plate, 10 μL of lipid stock (1:1 ratio PI5P:DOPE) was delivered. This was followed by the addition of 5 μL of compound in 25% DMSO. Then, to each well, 5 μL of 25 nM (5×) typeIIB enzyme was delivered. The contents were mixed well and incubated for 1 h at 27° C. After 1 h, reaction was initiated by adding 5 μL of 500 μM GTP and the contents were mixed well with a multi-channel pipetteman. The final concentration of the reagents are as follows: 50 mM HEPES, pH 7.3, 10 mM MgCl2, 20 mM NaCl, 0.01% v/v triton-X100, 5% DMSO, 100 μM GTP, 80 μM (2 μg) PI5P, 2 μg DOPE, and 5 nM PIP4KIIB Typically, the highest conc. of compounds was 4.8 μM and the lowest conc. was 0.
After 2 h, the reaction was quenched by adding 25 μL of transcreener FI reagent. The contents were incubated at rt for 1 h and the Fluorescence (Ex: 584 Em: 623) was read using Molecular Devices Paradigm plate reader. […] The blanks were averaged and subtracted from all other wells. Using a calibration curve, RFU was converted to μM GDP (product). IC50 was calculated by plotting the residual activity (expressed as % No inhibitor control) vs. log [Inh. conc.]

In test [3] the target is T1, PIP4K2A. As to the kind of experiment: Kinase Assay PIP4K2 A (Table 2). The note with it: compounds listed under IC50 bins. Further details: 4 nM PIP4K2A (full length protein, SignalChem); purchased SignalChem. A digest of the protocol:
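Full-length PIP4K2A (4 nM in the added mix, with 100 μM PI(5)P diC8) pre-incubated 15 min at RT with compounds (10-point, 3-fold series) in 20 mM MOPS pH 7.2, 25 mM MgCl2, 0.005% Tween 20. ATP added from a 60 μM solution, 1 h at RT; ADP-Glo luminescence, IC50 fitted from % inhibition versus DMSO.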

SMILES strings stand for the structures. Where only a bound is given, the exact number is not on record here.

For the compound `CC1CN(C(=O)Nc2cncc(Nc3ccc(-c4ccc(N5CCCC5=O)cc4)cn3)c2)CCN1` (centres unmarked) [Example 256, 3-methyl-N-(5-((5-(4-(2-oxopyrrolidin-1-yl)phenyl)pyridin-2-yl)amino)pyridin-3-yl)piperazine-1-carboxamide], the IC50 in test [1] and in test [2] was 10 to 100 nM throughout.
On to `Cc1cc(N2CCCC2=O)ccc1-c1cnc(Nc2cnc3c(c2)N2C(=O)C4(CC4)C[C@H]2CO3)nc1` [Example 203, (S)-2′-((5-(2-methyl-4-(2-oxopyrrolidin-1-yl)phenyl)pyrimidin-2-yl)amino)-6a′,7′-dihydro-6′H,9′H-spiro[cyclopropane-1,8′-pyrido[2,3-b]pyrrolo[1,2-d][1,4]oxazin]-9′-one], for which the 50% inhibitory concentration (IC50) in test [1] and in test [2] was 1 to 10 nM each time.
Regarding `O=C1CCCN1c1ccc(-c2cnc(Nc3cnc4c(c3)N3C(=O)CC[C@H]3CO4)cc2C2CC2)cc1F` [Example 182, (S)-2-((4-cyclopropyl-5-(3-fluoro-4-(2-oxopyrrolidin-1-yl)phenyl)pyridin-2-yl)amino)-6,6a,7,8-tetrahydro-9H-pyrido[2,3-b]pyrrolo[1,2-d][1,4]oxazin-9-one], the IC50 in test [1] lay within 1 to 10 nM; in test [2] it was 10 to 100 nM.
On the same counts, the results for `Cc1cc(Nc2cnc3c(c2)N2C(=O)CC[C@H]2CO3)ncc1-c1ccc(N2CCCC2=O)cc1` [Example 176, (S)-2-((4-methyl-5-(4-(2-oxopyrrolidin-1-yl)phenyl)pyridin-2-yl)amino)-6,6a,7,8-tetrahydro-9H-pyrido[2,3-b]pyrrolo[1,2-d][1,4]oxazin-9-one] are 1 to 10 nM and 10 to 100 nM.
As for `COCc1nc(Nc2cnc3c(c2)N2C(=O)C4(CC4)C[C@H]2CO3)ncc1-c1ccc(N2CCCC2=O)cc1` [Example 202, (S)-2′-((4-(methoxymethyl)-5-(4-(2-oxopyrrolidin-1-yl)phenyl)pyrimidin-2-yl)amino)-6a′,7′-dihydro-6′H,9′H-spiro[cyclopropane-1,8′-pyrido[2,3-b]pyrrolo[1,2-d][1,4]oxazin]-9′-one], the 50% inhibitory concentration (IC50) in test [3] and in test [2] was 1 to 10 nM in each case.
As for `Cc1ccnnc1-c1ccc(-c2ccc(Nc3cnc4c(c3)N3C(=O)CC[C@H]3CO4)nc2)cc1` [Example 276, (S)-2-((5-(4-(4-methylpyridazin-3-yl)phenyl)pyridin-2-yl)amino)-6,6a,7,8-tetrahydro-9H-pyrido[2,3-b]pyrrolo[1,2-d][1,4]oxazin-9-one], the IC50 in test [3] and in test [2] was 1 to 10 nM each time.
Regarding `CN(C)C(=O)c1ccc(-c2ccc(Nc3cnc4c(c3)N(C(=O)C(C)(C)C)CCO4)nc2)cc1` [Example 97, N,N-dimethyl-4-(6-((1-pivaloyl-2,3-dihydro-1H-pyrido[2,3-b][1,4]oxazin-7-yl)amino)pyridin-3-yl)benzamide], the 50% inhibitory concentration (IC50) in test [3] lay in the range of 1 to 10 nM; in test [2], 10 to 100 nM.
For the compound `COCc1nc(Nc2cnc3c(c2)N2C(=O)CC[C@H]2CO3)ncc1-c1ccc(C(=O)N(C)C)cc1` [Example 293, (S)-4-(4-(methoxymethyl)-2-((9-oxo-6a,7,8,9-tetrahydro-6H-pyrido[2,3-b]pyrrolo[1,2-d][1,4]oxazin-2-yl)amino)pyrimidin-5-yl)-N,N-dimethylbenzamide], the half-maximal inhibitory concentration (IC50) in test [3] and in test [2] was 10 to 100 nM in each case.
Consider `O=C1CCC(N2C(=O)c3cccc(NCCOCCOCCOCC(=O)Nc4ccc(C(=O)Nc5cncc(Nc6ccc(-c7ccc(N8CCCC8=O)cc7)cn6)c5)cc4)c3C2=O)C(=O)N1` (centres unmarked) [Example 296, 4-(2-(2-(2-(2-((2-(2,6-dioxopiperidin-3-yl)-1,3-dioxoisoindolin-4-yl)amino)ethoxy)ethoxy)ethoxy)acetamido)-N-(5-((5-(4-(2-oxopyrrolidin-1-yl)phenyl)pyridin-2-yl)amino)pyridin-3-yl)benzamide], for which the values for the IC50 in test [3] and in test [2] were 100 to 1000 nM and 10 to 100 nM, respectively.
The like results for `COCc1cc(Nc2cnc3c(c2)N2C(=O)CC[C@H]2CO3)ncc1-c1ccc(-c2nocc2C)cc1` [Example 282, (S)-2-((4-(methoxymethyl)-5-(4-(4-methylisoxazol-3-yl)phenyl)pyridin-2-yl)amino)-6,6a,7,8-tetrahydro-9H-pyrido[2,3-b]pyrrolo[1,2-d][1,4]oxazin-9-one] were, in that order, 1 to 10 nM and 10 to 100 nM.
Take `O=C1CCCN1c1ccc(-c2cnc(Nc3cnc4c(c3)N3C(=O)CC[C@H]3CO4)cc2OC2CCC2)cc1` [Example 284, (S)-2-((4-cyclobutoxy-5-(4-(2-oxopyrrolidin-1-yl)phenyl)pyridin-2-yl)amino)-6,6a,7,8-tetrahydro-9H-pyrido[2,3-b]pyrrolo[1,2-d][1,4]oxazin-9-one]: the figures for the IC50 in test [3] and in test [2] were no more than 1 nM and 1 to 10 nM, respectively.
On the same counts, the results for `CN(C)C(=O)c1ccc(-c2ccc(Nc3cncc(NC(=O)c4cccc(N)c4)c3)nc2)cc1` [Example 99, 4-(6-((5-(3-aminobenzamido)pyridin-3-yl)amino)pyridin-3-yl)-N,N-dimethylbenzamide] are 10 to 100 nM and 10 to 100 nM.
The like results for `CN1CC2(CCN(c3ccc(Nc4cnc5c(c4)N4C(=O)CC[C@H]4CO5)nc3)CC2)OC1=O` [Example 279, (S)-2-((5-(3-methyl-2-oxo-1-oxa-3,8-diazaspiro[4.5]decan-8-yl)pyridin-2-yl)amino)-6,6a,7,8-tetrahydro-9H-pyrido[2,3-b]pyrrolo[1,2-d][1,4]oxazin-9-one] were, in that order, greater than 1000 nM and greater than 1000 nM.
